In US8093274B2, “Inhibitors of protein prenyltransferases” (The Regents of the University of California, priority 2006, dated 2012):

How the values were obtained:
[1] = target: GGTase I (substrate K-Ras4B) (Homo sapiens, UniProt P49354+P53609); assay: GGTase I filter-binding assay with K-Ras4B as substrate; type: biochemical; conditions: 50 μM compound; DMSO = 100%; smaller numbers indicate better inhibition; first number of pair; read-out: % activity of GGTase I for protein K-Ras4B in the presence of the compound
Description: (§1) The pilot library was screened for inhibitors of protein geranylgeranyltransferase type I. Protein prenyltransferase assays were carried out by using filter binding. Two different substrates, RhoA and K-Ras4B, were used for the assay. RhoA ends with the CaaL motif and is an exclusive substrate for GGTase I, while K-Ras4B ends with the CaaX motif and is modified by both GGTase I and FTase.
(§2) The % activity of GGTase I was determined as follows: a working solution that contained each compound in DMSO at the concentration of 1 mM was prepared. The working solution was added to GGTase I reaction mixture so that the final concentration of the compound is 50 μM. GGTase I activity was assayed by incubating [^3H]GGPP with K-Ras4B or RhoA protein in the presence of GGTase I and examining radioactivity incorporated into the substrate protein by spotting onto a filter paper. After washing with TCA, ethanol and acetone, the radioactivity retained on the filter was determined by the use of a scintillation counter. GGTase I activity in the presence of DMSO was taken as a 100% value and the activity in the presence of the compound was shown as percent activity compared with the 100% value. […] For 6-aryl-4-mercapto-N-sulfonyl-piperidine-3-carboxylic acid 11 the 4-mercapto substituent appeared critical to endowing GGTase inhibitory activity. […] 4-Chlorobenzylthio substituent was the next best; 12 compounds out of 21 containing the 4-chlorobenzylthio moiety were active. 4-Benzylthio substituent was also good; 7 piperidines out of 21 bearing 4-benzylthio group were active. […] 19 imines (C15>C12=C41>C40>C01=C11>C05=C10=C30=C35=C37=C38>C02, C03, C04, C06, C39=C43) out of 21 appeared in the GGTIs. […] This corresponds to 47 6-aryl-4-mercapto-N-sulfonyl-piperidine-3-carboxylic acids out of 357 compounds.
(§3) A collection of 138 heterocycles was screened for their ability to inhibit the activity of human GGTase-I to geranylgeranylate K-Ras4B or RhoA. Purified GGTase-1 was incubated with its substrate protein K-Ras4B or RhoA, [^3H]GGPP, and the 138 compounds. After 30 min, the degree of incorporation of tritiated geranylgeranyl groups was measured using a scintillation counter.

[2] = target: GGTase I (substrate RhoA) (Homo sapiens, UniProt P49354+P53609); assay: GGTase I filter-binding assay with RhoA as substrate; type: biochemical; conditions: 50 μM compound; DMSO = 100%; smaller numbers indicate better inhibition; second number of pair; read-out: % activity of GGTase I for protein RhoA in the presence of the compound
Description: as §1, §2, §3
The GGTase-I assay was carried out using RhoA as a substrate protein, GGTase-I (JENA Bioscience) and [3H]geranylgeranyl pyrophosphate. Incubation was for 30 min at 37 C. GGTase-H (or RabGGTase) assay was carried out using YPT1 as a substrate protein, GGTase-H (Calbiochem, San Diego, Calif.) plus REP1 (Calbiochem) and [3H]geranylgeranyl pyrophosphate. Incubation was for 30 min at 37 C. FIGS. 20D-20F show the three dimensional structure of GGTase I (D), FTsse (E) and GGTase II (F) which can be obtained from X-ray diffraction studies of protein crystals.

COc1ccc([C@H]2C(C(=O)O)=C[C@@H](C(C)(C)C)N2S(=O)(=O)c2ccc(C)cc2)cc1OC
activity at 50 µM [1]: 23.4% | activity at 50 µM [2]: 6.1%

Cc1ccccc1S(=O)(=O)N1C(c2ccc(Cl)cc2)CC=C(C(=O)O)[C@@H]1c1cccc(Br)c1 (stereo partly drawn)
activity at 50 µM [1]: 10.6% | activity at 50 µM [2]: 8.8%

Cc1cccc([C@H]2C(C(=O)O)=CCC(c3ccc(Cl)cc3)N2S(=O)(=O)c2ccccc2C)c1 (stereo partly drawn)
activity at 50 µM [1]: 15.6% | activity at 50 µM [2]: 12.4%

Cc1ccc(S(=O)(=O)N2C(c3ccc(Cl)c(Cl)c3)CC=C(C(=O)O)[C@@H]2c2cccc(C)c2)cc1 (stereo partly drawn)
activity at 50 µM [1]: 12.6% | activity at 50 µM [2]: 10.3%

Cc1ccccc1S(=O)(=O)N1C(c2ccc(Cl)cc2)CC=C(C(=O)O)[C@@H]1c1cccc(F)c1 (stereo partly drawn)
activity at 50 µM [1]: 5.4% | activity at 50 µM [2]: 3%

Cc1ccccc1S(=O)(=O)N1C(c2ccc(Cl)cc2)CC=C(C(=O)O)[C@@H]1c1ccccc1F (stereo partly drawn)
activity at 50 µM [1]: 8.4% | activity at 50 µM [2]: 4.1%

Cc1ccccc1S(=O)(=O)N1C(c2ccc(Cl)cc2)CC=C(C(=O)O)[C@@H]1c1ccc(F)cc1 (stereo partly drawn)
activity at 50 µM [1]: 15.6% | activity at 50 µM [2]: 12.6%

Cc1ccc(S(=O)(=O)N2C(c3ccc(Cl)c(Cl)c3)CC=C(C(=O)O)[C@@H]2c2ccc(Cl)cc2)cc1 (stereo partly drawn)
activity at 50 µM [1]: 17.7% | activity at 50 µM [2]: 12.1%

Cc1ccc([C@H]2C(C(=O)O)=CCC(c3ccc(Cl)c(Cl)c3)N2S(=O)(=O)c2ccc(C)cc2)cc1 (stereo partly drawn)
activity at 50 µM [1]: 12.4% | activity at 50 µM [2]: 15.6%

Cc1ccc(S(=O)(=O)N2C(c3cccc(Br)c3)CC=C(C(=O)O)[C@@H]2c2cccc(Br)c2)cc1 (stereo partly drawn)
activity at 50 µM [1]: 9.4% | activity at 50 µM [2]: 3.7%

Cc1ccc(S(=O)(=O)N2C(c3cccc(Cl)c3)CC=C(C(=O)O)[C@@H]2c2cccc(Br)c2)cc1 (stereo partly drawn)
activity at 50 µM [1]: 11% | activity at 50 µM [2]: 7%

Cc1ccc(S(=O)(=O)N2C(c3cccc(Br)c3)CC=C(C(=O)O)[C@@H]2c2cccc(Cl)c2)cc1 (stereo partly drawn)
activity at 50 µM [1]: 9.8% | activity at 50 µM [2]: 7.9%

Cc1ccc(S(=O)(=O)N2C(c3cccc(Cl)c3)CC=C(C(=O)O)[C@@H]2c2cccc(Cl)c2)cc1 (stereo partly drawn)
activity at 50 µM [1]: 43.7% | activity at 50 µM [2]: 6%

Cc1ccc(S(=O)(=O)N2C(c3cccc(Br)c3)CC=C(C(=O)O)[C@@H]2c2cccc(C)c2)cc1 (stereo partly drawn)
activity at 50 µM [1]: 16.1% | activity at 50 µM [2]: 14.3%

Cc1ccc(S(=O)(=O)N2C(c3cccc(Br)c3)CC=C(C(=O)O)[C@@H]2c2cccc(F)c2)cc1 (stereo partly drawn)
activity at 50 µM [1]: 17% | activity at 50 µM [2]: 15%

Cc1ccc(S(=O)(=O)N2C(c3cccc(Br)c3)CC=C(C(=O)O)[C@@H]2c2ccccc2)cc1 (stereo partly drawn)
activity at 50 µM [1]: 35.2% | activity at 50 µM [2]: 19.4%

O=C(O)C1=CCC(c2ccc(Cl)cc2)N(S(=O)(=O)c2ccc(Cl)cc2)[C@H]1c1cccc(Br)c1 (stereo partly drawn)
activity at 50 µM [1]: 8.6% | activity at 50 µM [2]: 5%

Cc1ccc(C2CC=C(C(=O)O)[C@H](c3cccc(Br)c3)N2S(=O)(=O)c2ccc(Cl)cc2)cc1 (stereo partly drawn)
activity at 50 µM [1]: 8.4% | activity at 50 µM [2]: 7.4%

C=CCS[C@H]1[C@@H](C(=O)O)[C@H](c2ccc(Cl)c(Cl)c2)N(S(=O)(=O)c2ccc(C)cc2)[C@@H]1CCCC
activity at 50 µM [1]: 21.4% | activity at 50 µM [2]: 9.6%

CC[C@@H]1[C@@H](SCCC(=O)OC(C)(C)C)[C@@H](C(=O)O)[C@H](c2ccc(Cl)c(Cl)c2)N1S(=O)(=O)c1ccc(C)cc1
activity at 50 µM [1]: 27.2% | activity at 50 µM [2]: 7.6%

CCC[C@@H]1[C@@H](Sc2ccc(OC)cc2)[C@@H](C(=O)O)[C@H](c2ccc(Cl)c(Cl)c2)N1S(=O)(=O)c1ccc(C)cc1
activity at 50 µM [1]: 10.9% | activity at 50 µM [2]: 1.1%

C=CCS[C@H]1[C@@H](C(=O)O)[C@H](c2ccc(Cl)c(Cl)c2)N(S(=O)(=O)c2ccc(C)cc2)[C@@H]1CCCCCC
activity at 50 µM [1]: 15.1% | activity at 50 µM [2]: 6.8%

Cc1ccc(S(=O)(=O)N2[C@H](CC3CCCC3)[C@@H](SCCC(=O)OC(C)(C)C)[C@@H](C(=O)O)[C@@H]2c2ccc(Cl)c(Cl)c2)cc1
activity at 50 µM [1]: 16.1% | activity at 50 µM [2]: 7.3%

C=CCS[C@H]1[C@@H](C(=O)O)[C@H](c2ccc(Cl)c(Cl)c2)N(S(=O)(=O)c2ccc(C)cc2)[C@@H]1CC1CCCC1
activity at 50 µM [1]: 12.1% | activity at 50 µM [2]: 8.6%
